Data as given in patent publication US7935687B2, “Methods for treating spinal muscular atrophy using tetracycline compounds” (Paratek Pharmaceuticals, Inc., priority 2007, dated 2011).
Like-named read-outs stand apart in the source and are kept apart here.

Legend:
[1] = system: S. aureus (SA RN450); assay: Antibacterial MIC, gram positive; format: cell-based
[2] = system: E. coli (EC D1-209); assay: Antibacterial MIC, gram negative; format: cell-based
[3] = CLSI methodology, 35° C., 18-24 hours

Structure (SMILES) | MIC Gram Positive (SA RN450) [1, 3] | MIC Gram Negative (EC D1-209) [2, 3] | also measured
CC(C)OC(=O)c1cccc(-c2ccc(O)c3c2CC2CC4C(N(C)C)C(O)=C(C(N)=O)C(=O)C4(O)C(O)=C2C3=O)c1 (centres unmarked) [AU] | *** (Good antibacterial activity (e.g., less than about 4 μg/mL)) | * (weak antibacterial activity (greater than about 8 μg/mL)) | –
CN(C)CC(=O)Nc1ccc(-c2ccc(O)c3c2CC2CC4C(N(C)C)C(O)=C(C(N)=O)C(=O)C4(O)C(O)=C2C3=O)cc1 (centres unmarked) [BC] | *** (Good antibacterial activity (e.g., less than about 4 μg/mL)) | *** (Good antibacterial activity (e.g., less than about 4 μg/mL)) | –
CN(C)CCNC(=O)c1cccc(-c2cc(N(C)C)c3c(c2O)C(=O)C2=C(O)[C@]4(O)C(=O)C(C(N)=O)=C(O)[C@@H](N(C)C)[C@@H]4C[C@@H]2C3)c1 [Compound V, (4S,4aS,5aR,12aS)-4,7-Bis-dimethylamino-9-[3-(2-dimethylamino-ethylcarbamoyl)-phenyl]-3,10,12,12a-tetrahydroxy-1,11-dioxo-1,4,4a,5,5a,6,11,12a-octahydro-naphthacene-2-carboxylic Acid Amide] | – | – | MIC ([1]; Staphylococcus aureus, CLSI methodology, 35° C., 18-24 hours): > 8 µg/mL; MIC ([2]; Escherichia coli, CLSI methodology, 35° C., 18-24 hours): > 8 µg/mL
CN(C)CC(=O)N1CC=C(c2ccc(O)c3c2CC2CC4C(N(C)C)C(O)=C(C(N)=O)C(=O)C4(O)C(O)=C2C3=O)CC1 (centres unmarked) [Compound AL] | *** (Good antibacterial activity (e.g., less than about 4 μg/mL)) | * (weak antibacterial activity (greater than about 8 μg/mL)) | –
CN(C)CCN(C)C(=O)c1cccc(-c2ccc(O)c3c2CC2CC4C(N(C)C)C(O)=C(C(N)=O)C(=O)C4(O)C(O)=C2C3=O)c1 (centres unmarked) [R] | *** (Good antibacterial activity (e.g., less than about 4 μg/mL)) | * (weak antibacterial activity (greater than about 8 μg/mL)) | –
COCCNCc1ccc(-c2ccc(O)c3c2CC2CC4C(N(C)C)C(O)=C(C(N)=O)C(=O)C4(O)C(O)=C2C3=O)cc1 (centres unmarked) [BG] | *** (Good antibacterial activity (e.g., less than about 4 μg/mL)) | *** (Good antibacterial activity (e.g., less than about 4 μg/mL)) | –
CN(C)CCC(=O)c1ccc(O)c2c1CC1CC3C(N(C)C)C(O)=C(C(N)=O)C(=O)C3(O)C(O)=C1C2=O (centres unmarked) [AV] | *** (Good antibacterial activity (e.g., less than about 4 μg/mL)) | * (weak antibacterial activity (greater than about 8 μg/mL)) | –
CN(C)c1cc(-c2cccc(C(N)=O)c2)c(O)c2c1CC1CC3C(N(C)C)C(O)=C(C(N)=O)C(=O)C3(O)C(O)=C1C2=O (centres unmarked) [CD] | ** (modest antibacterial activity (between about 4 and 8 μg/mL)) | * (weak antibacterial activity (greater than about 8 μg/mL)) | –
CCCCNC(=O)c1cccc(-c2ccc(O)c3c2CC2CC4C(N(C)C)C(O)=C(C(N)=O)C(=O)C4(O)C(O)=C2C3=O)c1 (centres unmarked) [F] | *** (Good antibacterial activity (e.g., less than about 4 μg/mL)) | * (weak antibacterial activity (greater than about 8 μg/mL)) | –
CN(C)C1C(O)=C(C(N)=O)C(=O)C2(O)C(O)=C3C(=O)c4c(O)ccc(C(=O)CN5CCN(C6CCCCC6)CC5)c4CC3CC12 (centres unmarked) [BU] | *** (Good antibacterial activity (e.g., less than about 4 μg/mL)) | *** (Good antibacterial activity (e.g., less than about 4 μg/mL)) | –
CN(C)CCCNC(=O)c1cccc(-c2cc(N(C)C)c3c(c2O)C(=O)C2=C(O)[C@]4(O)C(=O)C(C(N)=O)=C(O)[C@@H](N(C)C)[C@@H]4C[C@@H]2C3)c1 [Compound X] | * (weak antibacterial activity (greater than about 8 μg/mL)) | * (weak antibacterial activity (greater than about 8 μg/mL)) | –
CN(C)C1C(O)=C(C(N)=O)C(=O)C2(O)C(O)=C3C(=O)c4c(O)ccc(C(=O)CNCC(F)(F)F)c4CC3CC12 (centres unmarked) [BT] | *** (Good antibacterial activity (e.g., less than about 4 μg/mL)) | * (weak antibacterial activity (greater than about 8 μg/mL)) | –
COC(C)CNCC(=O)c1ccc(O)c2c1CC1CC3C(N(C)C)C(O)=C(C(N)=O)C(=O)C3(O)C(O)=C1C2=O (centres unmarked) [CA] | *** (Good antibacterial activity (e.g., less than about 4 μg/mL)) | * (weak antibacterial activity (greater than about 8 μg/mL)) | –
CN(C)C1C(O)=C(C(N)=O)C(=O)C2(O)C(O)=C3C(=O)c4c(O)ccc(C(=O)CNCc5ccccn5)c4CC3CC12 (centres unmarked) [BY] | *** (Good antibacterial activity (e.g., less than about 4 μg/mL)) | * (weak antibacterial activity (greater than about 8 μg/mL)) | –
CN(C)CCC(=NOC(C)(C)C)c1ccc(O)c2c1CC1CC3C(N(C)C)C(O)=C(C(N)=O)C(=O)C3(O)C(O)=C1C2=O (centres unmarked) [Compound CJ] | *** (Good antibacterial activity (e.g., less than about 4 μg/mL)) | * (weak antibacterial activity (greater than about 8 μg/mL)) | –
CN(C)C1C(O)=C(C(N)=O)C(=O)C2(O)C(O)=C3C(=O)c4c(O)ccc(-c5cccc(C(N)=O)c5)c4CC3CC12 (centres unmarked) [AE] | *** (Good antibacterial activity (e.g., less than about 4 μg/mL)) | * (weak antibacterial activity (greater than about 8 μg/mL)) | –

Structure (SMILES) | MIC Gram Positive (SA RN450) [1, 3] | MIC Gram Negative (EC D1-209) [2, 3] | also measured
CN(C)CCc1ccc(O)c2c1CC1CC3C(N(C)C)C(O)=C(C(N)=O)C(=O)C3(O)C(O)=C1C2=O (centres unmarked) [Compound BD] | *** (Good antibacterial activity (e.g., less than about 4 μg/mL)) | * (weak antibacterial activity (greater than about 8 μg/mL)) | –
CN(C)C1C(O)=C(C(N)=O)C(=O)C2(O)C(O)=C3C(=O)c4c(O)ccc(-c5cnc6ccccc6c5)c4CC3CC12 (centres unmarked) [G] | *** (Good antibacterial activity (e.g., less than about 4 μg/mL)) | * (weak antibacterial activity (greater than about 8 μg/mL)) | –
CN(C)CCCOc1ccc(-c2ccc(O)c3c2CC2CC4C(N(C)C)C(O)=C(C(N)=O)C(=O)C4(O)C(O)=C2C3=O)cn1 (centres unmarked) [W] | *** (Good antibacterial activity (e.g., less than about 4 μg/mL)) | *** (Good antibacterial activity (e.g., less than about 4 μg/mL)) | –
CC(=O)Nc1cccc(-c2ccc(O)c3c2CC2CC4C(N(C)C)C(O)=C(C(N)=O)C(=O)C4(O)C(O)=C2C3=O)c1 (centres unmarked) [AO] | *** (Good antibacterial activity (e.g., less than about 4 μg/mL)) | * (weak antibacterial activity (greater than about 8 μg/mL)) | –
CN(C)C1C(O)=C(C(N)=O)C(=O)C2(O)C(O)=C3C(=O)c4c(O)ccc(C(=O)CNCC(N)=O)c4CC3CC12 (centres unmarked) [BZ] | – | – | MIC Gram Positive (SA RN450) [1]: ** (key: ***: Good antibacterial activity (e.g., less than about 4 μg/mL); **: modest antibacterial activity (between about 4 and 8 μg/mL); *: weak antibacterial activity (greater than about 8 μg/mL)); MIC Gram Negative (EC D1-209) [2]: * (key: ***: Good antibacterial activity (e.g., less than about 4 μg/mL); **: modest antibacterial activity (between about 4 and 8 μg/mL); *: weak antibacterial activity (greater than about 8 μg/mL))
CN1CCN(CC(=O)c2ccc(O)c3c2CC2CC4C(N(C)C)C(O)=C(C(N)=O)C(=O)C4(O)C(O)=C2C3=O)CC1 (centres unmarked) [BB] | *** (Good antibacterial activity (e.g., less than about 4 μg/mL)) | * (weak antibacterial activity (greater than about 8 μg/mL)) | –
CN(C)Cc1ccc(-c2ccc(O)c3c2CC2CC4C(N(C)C)C(O)=C(C(N)=O)C(=O)C4(O)C(O)=C2C3=O)[nH]1 (centres unmarked) [BK] | *** (Good antibacterial activity (e.g., less than about 4 μg/mL)) | * (weak antibacterial activity (greater than about 8 μg/mL)) | –
COc1ccc(CN(C)C)cc1-c1ccc(O)c2c1CC1CC3C(N(C)C)C(O)=C(C(N)=O)C(=O)C3(O)C(O)=C1C2=O (centres unmarked) [AT] | *** (Good antibacterial activity (e.g., less than about 4 μg/mL)) | *** (Good antibacterial activity (e.g., less than about 4 μg/mL)) | –
CN(C)CCNC(=O)c1cccc(-c2ccc(O)c3c2CC2CC4C(N(C)C)C(O)=C(C(N)=O)C(=O)C4(O)C(O)=C2C3=O)c1F (centres unmarked) [AP] | *** (Good antibacterial activity (e.g., less than about 4 μg/mL)) | * (weak antibacterial activity (greater than about 8 μg/mL)) | –
COCC(=O)c1ccc(O)c2c1CC1CC3C(N(C)C)C(O)=C(C(N)=O)C(=O)C3(O)C(O)=C1C2=O (centres unmarked) [BW] | *** (Good antibacterial activity (e.g., less than about 4 μg/mL)) | * (weak antibacterial activity (greater than about 8 μg/mL)) | –
CN(CCOC(C)(C)C)Cc1cccc(-c2ccc(O)c3c2CC2CC4C(N(C)C)C(O)=C(C(N)=O)C(=O)C4(O)C(O)=C2C3=O)c1 (centres unmarked) [BM] | *** (Good antibacterial activity (e.g., less than about 4 μg/mL)) | ** (modest antibacterial activity (between about 4 and 8 μg/mL)) | –
CCOC(=O)N1CCN(CC(=O)c2ccc(O)c3c2CC2CC4C(N(C)C)C(O)=C(C(N)=O)C(=O)C4(O)C(O)=C2C3=O)CC1 (centres unmarked) [BR] | *** (Good antibacterial activity (e.g., less than about 4 μg/mL)) | * (weak antibacterial activity (greater than about 8 μg/mL)) | –
CC1=NCCN1CC(=O)c1ccc(O)c2c1CC1CC3C(N(C)C)C(O)=C(C(N)=O)C(=O)C3(O)C(O)=C1C2=O (centres unmarked) [CH] | ** (modest antibacterial activity (between about 4 and 8 μg/mL)) | * (weak antibacterial activity (greater than about 8 μg/mL)) | –
CN(C)CCNC(=O)c1ccc(-c2ccc(O)c3c2CC2CC4C(N(C)C)C(O)=C(C(N)=O)C(=O)C4(O)C(O)=C2C3=O)cc1 (centres unmarked) [AD] | *** (Good antibacterial activity (e.g., less than about 4 μg/mL)) | * (weak antibacterial activity (greater than about 8 μg/mL)) | –
COC(=O)c1ccc(-c2ccc(O)c3c2CC2CC4C(N(C)C)C(O)=C(C(N)=O)C(=O)C4(O)C(O)=C2C3=O)cc1 (centres unmarked) [AR] | *** (Good antibacterial activity (e.g., less than about 4 μg/mL)) | * (weak antibacterial activity (greater than about 8 μg/mL)) | –
